In PubChem BioAssay AID256 (DTP/NCI, 2004):
“And” between values parts separate entries of the source, which are not always exact repeats. Equal values may be shown once. Inconclusive results and toxic doses are left out.

Tested on: CD2F1 mice, L1210 leukemia ip, survival T/C
Experiment: NCI In Vivo Anticancer Drug Screen. Data for tumor model L1210 Leukemia (intraperitoneal) in CD2F1 (CDF1) mice
Settings: higher = longer survival
How it was run: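 Activity against a transplanted murine tumor was judged by comparing the compound group with a vehicle group. The outcome in the treated animals was divided by that in the controls.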

[1] = endpoint: mean survival time, dose: 50.0 mg/kg/injection, schedule: Q01DX009 (ip), vehicle: saline with Tween-80
[2] = endpoint: mean survival time, dose: 100.0 mg/kg/injection, schedule: Q01DX009 (ip), vehicle: saline with Tween-80
[3] = endpoint: mean survival time, dose: 100.0 mg/kg/injection, schedule: Q04DX003 (ip), vehicle: saline with Tween-80
[4] = endpoint: mean survival time, dose: 200.0 mg/kg/injection, schedule: Q01DX009 (ip), vehicle: saline with Tween-80
[5] = endpoint: mean survival time, dose: 200.0 mg/kg/injection, schedule: Q04DX003 (ip), vehicle: saline with Tween-80
[6] = endpoint: mean survival time, dose: 25.0 mg/kg/injection, schedule: Q04DX002 (ip), vehicle: saline with Tween-80
[7] = endpoint: mean survival time, dose: 50.0 mg/kg/injection, schedule: Q04DX002 (ip), vehicle: saline with Tween-80
[8] = endpoint: mean survival time, dose: 400.0 mg/kg/injection, schedule: Q04DX003 (ip), vehicle: saline with Tween-80
[9] = endpoint: mean survival time, dose: 100.0 mg/kg/injection, schedule: Q01DX001 (ip), vehicle: saline with Tween-80
[10] = endpoint: mean survival time, dose: 200.0 mg/kg/injection, schedule: Q01DX001 (ip), vehicle: saline with Tween-80
[11] = endpoint: mean survival time, dose: 400.0 mg/kg/injection, schedule: Q01DX001 (ip), vehicle: saline with Tween-80

CC1CC(C)SC(C(C)(C)C)S1 (centres undefined)
T/C (endpoint: mean survival time, dose: 12.5 mg/kg/injection, schedule: Q04DX002 (ip), vehicle: saline): 105 % of control
T/C (endpoint: mean survival time, dose: 25.0 mg/kg/injection, schedule: Q04DX002 (ip), vehicle: saline): 97 % of control
T/C (endpoint: mean survival time, dose: 50.0 mg/kg/injection, schedule: Q04DX002 (ip), vehicle: saline): 102 % of control

COc1ccc([Se][Se]c2ccc(OC)cc2NC(C)=O)c(NC(C)=O)c1
T/C [1]: 97 % of control
T/C [2]: 101 % of control
T/C [3]: 89 % of control
T/C [4]: 105 % of control
T/C [5]: 87 % of control

Cc1cc(NC(=O)CCc2ccc(N3C(N)=NC(N)=NC3(C)C)cc2)ccc1S(=O)(=O)F
T/C (endpoint: mean survival time, dose: 0.8 mg/kg/injection, schedule: Q01DX015 (ip), vehicle: water): 112 % of control
T/C (endpoint: mean survival time, dose: 4.0 mg/kg/injection, schedule: Q01DX015 (ip), vehicle: water): 98 % of control
T/C (endpoint: mean survival time, dose: 20.0 mg/kg/injection, schedule: Q01DX015 (ip), vehicle: water): 101 % of control
T/C (endpoint: mean survival time, dose: 100.0 mg/kg/injection, schedule: Q01DX015 (ip), vehicle: water): 110 % of control
T/C (endpoint: mean survival time, dose: 500.0 mg/kg/injection, schedule: Q01DX015 (ip), vehicle: water): 113 % of control

CC1(O)Nc2nc3nc[nH]c3c(=O)n2C1O (centres undefined)
T/C (endpoint: mean survival time, dose: 12.5 mg/kg/injection, schedule: Q01DX005 (ip), vehicle: water): 94 % of control
T/C (endpoint: mean survival time, dose: 25.0 mg/kg/injection, schedule: Q01DX005 (ip), vehicle: water): 90 % of control
T/C (endpoint: mean survival time, dose: 50.0 mg/kg/injection, schedule: Q01DX005 (ip), vehicle: water): 100 % of control
T/C (endpoint: mean survival time, dose: 100.0 mg/kg/injection, schedule: Q01DX005 (ip), vehicle: water): 94 % of control
T/C (endpoint: mean survival time, dose: 200.0 mg/kg/injection, schedule: Q01DX005 (ip), vehicle: water): 93 % of control

O=[N+]([O-])O.[In]
T/C (endpoint: mean survival time, dose: 1.25 mg/kg/injection, schedule: Q01DX009 (ip), vehicle: saline): 93 % of control
T/C (endpoint: mean survival time, dose: 2.5 mg/kg/injection, schedule: Q01DX009 (ip), vehicle: saline): 96 % of control
T/C (endpoint: mean survival time, dose: 5.0 mg/kg/injection, schedule: Q01DX009 (ip), vehicle: saline): 95 % of control
T/C (endpoint: mean survival time, dose: 10.0 mg/kg/injection, schedule: Q01DX009 (ip), vehicle: saline): 96 % of control

O=C1CCCCCCC(=O)CCCCCC1
T/C (endpoint: mean survival time, dose: 12.5 mg/kg/injection, schedule: Q04DX002 (ip), vehicle: saline with Tween-80): 105 % of control
T/C [6]: 101 % of control
T/C [7]: 105 % of control

CC(=O)CC(C)=O.CC(=O)CC(C)=O.CC(=O)CC(C)=O.CC(=O)CC(C)=O.[Hf]
T/C [3]: 86 % of control
T/C [5]: 94 % of control

CCOC(=O)C(C(C)=O)C(c1ccc(OC)cc1)C(C(C)=O)C(=O)OCC (centres undefined)
T/C [2]: 94 % of control
T/C [3]: 100 % of control
T/C [4]: 97 % of control
T/C [5]: 99 % of control
T/C (endpoint: mean survival time, dose: 400.0 mg/kg/injection, schedule: Q01DX009 (ip), vehicle: saline with Tween-80): 92 % of control
T/C [8]: 106 % of control

c1ccc(C[n+]2cccc3ccccc32)cc1
T/C (endpoint: mean survival time, dose: 5.0 mg/kg/injection, schedule: Q04DX003 (ip), vehicle: saline with Tween-80): 101 % of control
T/C (endpoint: mean survival time, dose: 10.0 mg/kg/injection, schedule: Q04DX003 (ip), vehicle: saline with Tween-80): 98 % of control
T/C (endpoint: mean survival time, dose: 20.0 mg/kg/injection, schedule: Q04DX003 (ip), vehicle: saline with Tween-80): 98 % of control

CCOC(=O)Nc1n[nH]c(=S)[nH]c1=O
T/C (endpoint: mean survival time, dose: 100.0 mg/kg/injection, schedule: Q01DX001 (ip), vehicle: carboxymethylcellulose (CMC)): 96 % of control
T/C (endpoint: mean survival time, dose: 200.0 mg/kg/injection, schedule: Q01DX001 (ip), vehicle: carboxymethylcellulose (CMC)): 100 % of control
T/C (endpoint: mean survival time, dose: 400.0 mg/kg/injection, schedule: Q01DX001 (ip), vehicle: carboxymethylcellulose (CMC)): 96 % of control

CC(=O)OCC(OC(C)=O)C(OC(C)=O)C(OC(C)=O)C(OC(C)=O)OC(C)=O (centres undefined)
T/C [9]: 94 % of control
T/C [10]: 96 % of control
T/C [11]: 96 % of control

CC(=O)OC1CCC2(C)C(C1)C(=O)OC1C2CCC2(C)C(C(C)CCCC(C)C)CCC12 (centres undefined)
T/C [3]: 94 % of control
T/C [5]: 94 % of control
T/C [8]: 94 % of control

CCC1=NNC(=O)C1(Br)Br
T/C (endpoint: mean survival time, dose: 12.5 mg/kg/injection, schedule: Q04DX003 (ip), vehicle: saline with Tween-80): 100 % of control
T/C (endpoint: mean survival time, dose: 25.0 mg/kg/injection, schedule: Q04DX003 (ip), vehicle: saline with Tween-80): 102 % of control
T/C (endpoint: mean survival time, dose: 50.0 mg/kg/injection, schedule: Q04DX003 (ip), vehicle: saline with Tween-80): 105 % of control

CCOC(=O)C(C(=O)OCC)N(Cc1ccccc1)Cc1ccccc1
T/C (endpoint: mean survival time, dose: 12.5 mg/kg/injection, schedule: Q01DX009 (ip), vehicle: other): 93 % of control
T/C (endpoint: mean survival time, dose: 25.0 mg/kg/injection, schedule: Q01DX009 (ip), vehicle: other): 93 % of control
T/C (endpoint: mean survival time, dose: 50.0 mg/kg/injection, schedule: Q01DX009 (ip), vehicle: other): 96 % of control
T/C (endpoint: mean survival time, dose: 100.0 mg/kg/injection, schedule: Q01DX009 (ip), vehicle: other): 93 % of control
T/C (endpoint: mean survival time, dose: 200.0 mg/kg/injection, schedule: Q01DX009 (ip), vehicle: other): 90 % of control

Cc1ccc(S(=O)(=O)NN2C(=O)c3ccccc3C2=O)cc1
T/C [6]: 96 % of control
T/C [7]: 96 % of control
T/C (endpoint: mean survival time, dose: 100.0 mg/kg/injection, schedule: Q04DX002 (ip), vehicle: saline with Tween-80): 100 % of control
T/C (endpoint: mean survival time, dose: 200.0 mg/kg/injection, schedule: Q04DX002 (ip), vehicle: saline with Tween-80): 96 % of control

O=C(C[P+](c1ccccc1)(c1ccccc1)c1ccccc1)C[P+](c1ccccc1)(c1ccccc1)c1ccccc1
T/C (endpoint: mean survival time, dose: 100.0 mg/kg/injection, schedule: Q01DX001 (ip), vehicle: saline): 97 % of control
T/C (endpoint: mean survival time, dose: 200.0 mg/kg/injection, schedule: Q01DX001 (ip), vehicle: saline): 95 % of control
T/C (endpoint: mean survival time, dose: 400.0 mg/kg/injection, schedule: Q01DX001 (ip), vehicle: saline): 92 % of control

CCOn1nc(-c2cccc3ccccc23)oc1=O
T/C [9]: 91 % of control
T/C [10]: 95 % of control
T/C [11]: 95 % of control

CC(C)C1C(O)C23CCC4C(C)(CO)CCCC4(C)C2CC13 (centres undefined)
T/C [9]: 96 % of control
T/C [10]: 94 % of control
T/C [11]: 94 % of control

Nc1ccn(C2CC(N)C(CO)O2)c(=O)n1 (centres undefined)
T/C (endpoint: median survival time, dose: 5.0 mg/kg/injection, schedule: Q06HX018 (ip), vehicle: water): 150 % of control
T/C (endpoint: median survival time, dose: 10.0 mg/kg/injection, schedule: Q06HX018 (ip), vehicle: water): 154 % of control and 162 % of control
T/C (endpoint: median survival time, dose: 20.0 mg/kg/injection, schedule: Q06HX018 (ip), vehicle: water): 198 % of control and 200 % of control
T/C (endpoint: median survival time, dose: 40.0 mg/kg/injection, schedule: Q06HX018 (ip), vehicle: water): 152 % of control and 174 % of control

Cc1ccc(S(=O)(=O)OCC2CC=CCC2COS(=O)(=O)c2ccc(C)cc2)cc1 (centres undefined)
T/C (endpoint: mean survival time, dose: 50.0 mg/kg/injection, schedule: Q04DX003 (ip), vehicle: saline): 102 % of control
T/C (endpoint: mean survival time, dose: 100.0 mg/kg/injection, schedule: Q04DX003 (ip), vehicle: saline): 96 % of control
T/C (endpoint: mean survival time, dose: 200.0 mg/kg/injection, schedule: Q04DX003 (ip), vehicle: saline): 91 % of control

CC(=O)OC(c1ccccc1)C(OC(C)=O)c1ccccc1 (centres undefined)
T/C (endpoint: mean survival time, dose: 75.0 mg/kg/injection, schedule: Q01DX001 (ip), vehicle: other): 104 % of control
T/C (endpoint: mean survival time, dose: 150.0 mg/kg/injection, schedule: Q01DX001 (ip), vehicle: other): 102 % of control
T/C (endpoint: mean survival time, dose: 300.0 mg/kg/injection, schedule: Q01DX001 (ip), vehicle: other): 88 % of control

Cc1ccc(Nc2n[nH]c(=S)s2)cc1C
T/C [3]: 93 % of control
T/C [5]: 94 % of control
T/C [8]: 109 % of control

O=C(OCC1OC(n2cnc([N+](=O)[O-])n2)C(OC(=O)c2ccccc2)C1OC(=O)c1ccccc1)c1ccccc1 (centres undefined)
T/C (endpoint: median survival time, dose: 18.8 mg/kg/injection, schedule: Q01DX005 (ip), vehicle: Klucel (hydroxypropylcellulose) (HPC)): 100 % of control
T/C (endpoint: median survival time, dose: 37.5 mg/kg/injection, schedule: Q01DX005 (ip), vehicle: Klucel (hydroxypropylcellulose) (HPC)): 102 % of control
T/C (endpoint: median survival time, dose: 75.0 mg/kg/injection, schedule: Q01DX005 (ip), vehicle: Klucel (hydroxypropylcellulose) (HPC)): 97 % of control
T/C (endpoint: median survival time, dose: 140.0 mg/kg/injection, schedule: Q01DX005 (ip), vehicle: Klucel (hydroxypropylcellulose) (HPC)): 96 % of control

COc1cc(OC)c(NC(=O)OCCOc2ccc([N+](=O)[O-])cc2)cc1Cl
T/C [1]: 90 % of control
T/C [2]: 86 % of control
T/C [4]: 97 % of control

COc1cccc(C2Nc3cc(Cl)ccc3S2)c1O (centres undefined)
T/C (endpoint: mean survival time, dose: 75.0 mg/kg/injection, schedule: Q01DX009 (ip), vehicle: other): 98 % of control
T/C (endpoint: mean survival time, dose: 150.0 mg/kg/injection, schedule: Q01DX009 (ip), vehicle: other): 96 % of control
T/C (endpoint: mean survival time, dose: 300.0 mg/kg/injection, schedule: Q01DX009 (ip), vehicle: other): 102 % of control
